Assay results taken from paper PMC4186413, “Identification of metabolic pathways and enzyme systems involved in the in vitro human hepatic metabolism of dronedarone, a potent new oral antiarrhythmic drug” (Pharmacology Research & Perspectives, 2014).

How the values were obtained:
[1] = Oxidative metabolism by human hepatic microsomal fractions with or without NADPH; assay type: in vitro ADME; details: 1 mg·mL^−1, 5 μmol/L, 30 min
Protocol: Human hepatic microsomal fractions were obtained from a large pool of human liver (150 individuals) prepared by BD Gentest-Biosciences (BD UltraPool™ HLM 150 – catalogue reference, 452118 Easy Count Box, Woburn, MA). This pooled human liver microsomal batch was also validated internally by the use of FDA-recommended CYP probes (FDA guidance for Industry, draft guidance February 2012).
(§1) For oxidative pathways, the assay mixture was composed of human liver microsomes (1 mg·m·L^−1) or microsomes of baculovirus-infected cells expressing human enzymes (100 pmol·mL^−1 for CYPs and 1 mg·mL^−1 for FMOs and MAOs), nicotinamide adenine dinucleotide phosphate reduced form (NADPH) (1 mmol/L), 100 mmol/L potassium phosphate (pH 7.4), and 5 μmol/L of the investigated compound dissolved in DMSO in a final volume of 500 μL.
(§2) The final concentration of DMSO in the reaction mixture was less than 1% (v/v). Initial rate conditions with respect to time and protein concentration for both the disappearance of unchanged drug and the formation of respective metabolites were established in preliminary studies. The enzyme reaction was initiated by addition of NADPH (10 mmol/L aqueous solution) to achieve a final concentration of 1 mmol/L for oxidative CYP- and FMO-dependent reactions or by the drug for MAO-dependent reactions, incubated at 37°C and stopped after 0–30 min by addition of one volume of ice-cold acetonitrile.
After removal of the proteins by centrifugation at 10,000 rpm for 10 min, a portion of the supernatant was analyzed by LC-UV-MS.
(§3) In human liver microsomes and recombinant isoforms, the percentage of metabolism was determined on the basis of unchanged drug disappearance, using the following equation [drawing 1] where UDt = 30 min represents the unchanged drug peak area after a 30-min incubation period and UDt = 0, the unchanged drug peak area at t = 0.
Dronedarone and its metabolites were incubated over 30 min with human hepatic microsomal fractions (1 mg·mL^−1) at a final concentration of 5 μmol/L, in the absence or the presence of 1 mmol/L NADPH, the cofactor for CYP- and FMO-dependent reactions.

[2] = test system: MAO-A and MAO-B; experiment: Oxidation by recombinant human MAOs; assay type: in vitro ADME; details: 1 mg/mL, 5 μmol/L, 30 min, no cofactor
Source text: Recombinant human CYPs (Supersomes™; BD Gentes, Woburn, MA: CYP1A1, CYP1A2, CYP2A6, CYP2B6, CYP2C8, CYP2C9, CYP2C18, CYP2C19, CYP2D6, CYP2E1, CYP3A4 and CYP3A5), FMOs (Supersomes™: FMO1, FMO3, FMO5), MAOs (Supersomes™: MAO-A and MAO-B), and UGTs (Supersomes™: UGT1A1, UGT1A3, UGT1A4, UGT1A6, UGT1A7, UGT1A8, UGT1A9, UGT1A10, UGT2B4, UGT2B7, UGT2B15, and UGT2B17) expressed in baculovirus-infected insect cells and control microsomes from insect cells infected with wild-type baculovirus were all obtained from BD Gentest (Woburn, MA).
as §1, §2, §3
To identify the specific isoforms that are capable of oxidizing dronedarone and its metabolites, assays were performed using c-DNA-expressed isoforms belonging to CYP- (CYP1A1, -1A2, -2A6, -2B6, -C8, -2C9, -2C18, -2C19, -2D6, -2E1, -3A4, and -3A5), FMO- (FMO-1, -3, and -5) and MAO- (MAO-A and MAO-B) families.
Figure 5 Contribution of individual CYPs, FMOs and MAOs to the oxidation of dronedarone and its metabolites. […] Unchanged drugs were quantified by LC/MS-MS relative to the synthetic references as described in Materials and Methods. Data are expressed as the percentage of oxidation.

SMILES | Parent drug metabolized by human hepatic microsomes ([1]; absence of NADPH) | Parent drug metabolized by human hepatic microsomes ([1]; presence of 1 mmol/L NADPH) | Oxidation by MAOs [2]
CCCCc1oc2ccc(NS(C)(=O)=O)cc2c1C(=O)c1ccc(OCCC(=O)O)cc1 [Propanoic acid-dronedarone] | No metabolism occurred | 50% | Neither other CYPs, nor FMOs and MAOs metabolized propanoic acid-dronedarone to any significant extent
CCCCN(CCCC)CCCOc1ccc(C(=O)O)cc1 [C-dealkyl-dronedarone] | No metabolism was observed | No metabolism was observed | not metabolized
CCCCNCCCOc1ccc(C(=O)c2c(CCCC)oc3ccc(NS(C)(=O)=O)cc23)cc1 [N-debutyl-dronedarone] | 25–30% | 25–30% | –
CCCCc1oc2ccc(NS(C)(=O)=O)cc2c1C(=O)c1ccc(O)cc1 [Phenol-dronedarone] | very slow | very slow | contributed to a very small extent
CCCCc1oc2ccc(NS(C)(=O)=O)cc2c1C(=O)c1ccc(OCCCN(CCCC)CCCC)cc1.Cl [Dronedarone, N-(2-Butyl-3-(4-(3-(dibutylamino)propoxy)benzoyl)-5-benzofuranyl)methanesulfonamide, hydrochloride] | not metabolized | ~60% | not involved
